Laboratory results reported in PMC7725003, “Systematically Studying the Optimal Amino Acid Distribution Patterns of the Amphiphilic Structure by Using the Ultrashort Amphiphiles” (Frontiers in Microbiology, 2020).
Where no end group is shown, it is not given here.

Key:
[1] = tested on: MRSA 43300; assay type: cell-based, methicillin-resistant S. aureus; conditions: 43300, 24 h
How it was run: (§1)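 Absorbance at 492 nm after 24 h at 37°C defined the MIC as the lowest peptide level inhibiting 95% of growth. Inoculum was 0.5–1 × 10^6 CFU mL^–1 mid-log cells in MHB; peptides were diluted in 0.2% BSA.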

[2] = tested on: E. coli 25922; assay type: cell-based, Escherichia coli; conditions: 25922, 24 h
How it was run: as §1

[3] = tested on: E. coli O78; assay type: cell-based, Escherichia coli; conditions: O78, 24 h
How it was run: as §1

[4] = tested on: E. coli UB1005; assay type: cell-based, Escherichia coli; conditions: UB1005, 24 h
How it was run: as §1

[5] = tested on: Gram-negative bacteria; conditions: geometric mean of MBCs, 9 Gram-negative strains (Table 2)
[6] = tested on: all of the tested bacterial strains; experiment: Geometric mean of MICs, all tested bacterial strains; assay type: cell-based; conditions: for GM, All: geometric mean of MICs across all tested strains; for TI, All: therapeutic index TI = MHC/GM MIC
How it was run: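 Mid-log bacteria at 0.5–1 × 10^6 CFU mL^–1 in MHB with peptides serially diluted in 0.2% BSA, 24 h at 37°C. MIC is the lowest concentration giving 95% growth inhibition by A492. MBC is the lowest giving >99.9% kill on agar subculture, and the GM is taken over all strains.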

[7] = tested on: Gram-negative bacteria; conditions: for GM MIC: geometric mean of MICs, 9 Gram-negative strains (Table 2); for TI, Gram-negative bacteria: therapeutic index TI = MHC/GM MIC
How it was run: (§2)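 Broth microdilution adapted from NCCLS: mid-log bacteria diluted in MHB to 0.5–1 × 10^6 CFU mL^–1, mixed with peptides serially diluted in 0.2% BSA. After 24 h at 37°C, MIC taken as the lowest concentration inhibiting 95% of growth by absorbance at 492 nm. Assays repeated more than 3 times.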

[8] = tested on: Gram-positive bacteria; conditions: for GM MIC: geometric mean of MICs, 7 Gram-positive strains (Table 2); for TI, Gram-positive bacteria: therapeutic index TI = MHC/GM MIC
How it was run: as §2

[9] = tested on: B. subtilis 63501; assay type: cell-based, Bacillus subtilis; conditions: 63501, 24 h
How it was run: as §1

[10] = tested on: S. pullorum 7913; assay type: cell-based, Salmonella pullorum; conditions: 7913, 24 h
How it was run: as §1

[11] = tested on: S. aureus 29213; assay type: cell-based, Staphylococcus aureus; conditions: 29213, 24 h
How it was run: as §1

[12] = tested on: S. aureus 25923; assay type: cell-based, Staphylococcus aureus; conditions: 25923, 24 h
How it was run: as §1

[13] = tested on: E. faecalis 29212; assay type: cell-based, Enterococcus faecalis; conditions: 29212, 24 h
How it was run: as §1

[14] = tested on: Listeria monocytogenes CGMCC 1.1075; assay type: cell-based; conditions: CGMCC 1.1075, 24 h
How it was run: as §1

[15] = tested on: S. epidermidis 12228; assay type: cell-based, Staphylococcus epidermidis; conditions: 12228, 24 h
How it was run: as §1

[16] = tested on: P. aeruginosa 27853; assay type: cell-based, Pseudomonas aeruginosa; conditions: 27853, 24 h
How it was run: as §1

[17] = tested on: E. coli K99; conditions: for MIC: MHB, 24 h 37°C, 95% growth inhibition; for MBC: value in brackets, >99.9% of cells killed
How it was run: (§3)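 Peptides were serially diluted in 0.2% BSA and added to mid-logarithmic cells diluted in MHB to 0.5–1 × 10^6 CFU mL^–1. Assays followed an adapted NCCLS protocol.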

[18] = tested on: E. coli K88; conditions: for MIC: MHB, 24 h 37°C, 95% growth inhibition; for MBC: value in brackets, >99.9% of cells killed
How it was run: as §3

[19] = tested on: S. typhimurium 7731; assay type: cell-based, Salmonella typhimurium; conditions: 7731, 24 h
How it was run: as §1

[20] = tested on: S. typhimurium 14028; assay type: cell-based, Salmonella typhimurium; conditions: 14028, 24 h
How it was run: as §1

[21] = tested on: Gram-positive bacteria; conditions: geometric mean of MBCs, 7 Gram-positive strains (Table 2)
[22] = tested on: S. aureus 29213; experiment: Salt sensitivity assay (MIC); assay type: cell-based, Staphylococcus aureus; conditions: for MIC, FeCl3: 4 μM FeCl3; for MIC, NH4Cl: 6 μM NH4Cl; for MIC, ZnCl2: 8 μM ZnCl2; for MIC, MgCl2: 1 mM MgCl2; for MIC, CaCl2: 2 mM CaCl2; for MIC, KCl: 4.5 mM KCl
How it was run: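 MICs determined by broth microdilution in MHB with 0.5–1 × 10^6 CFU/mL, peptides serially diluted in 0.2% BSA, 24 h at 37°C. Medium supplemented with physiological salts (150 mM NaCl, 4.5 mM KCl, 6 μM NH4Cl, 8 μM ZnCl2, 1 mM MgCl2, 2mM CaCl2, 4 μM FeCl3). MIC = lowest concentration inhibiting 95% growth (A492).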

[23] = tested on: E. coli ATCC 25922; experiment: Salt sensitivity assay (MIC); assay type: cell-based, Escherichia coli; conditions: for MIC, FeCl3: 4 μM FeCl3; for MIC, NH4Cl: 6 μM NH4Cl; for MIC, ZnCl2: 8 μM ZnCl2; for MIC, MgCl2: 1 mM MgCl2; for MIC, CaCl2: 2 mM CaCl2; for MIC, KCl: 4.5 mM KCl; for MIC, NaCl: 150 mM NaCl; for MIC, Control: no added salt, three independent assays
How it was run: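 The salt sensitivity of peptides was tested against E. coli ATCC 25922 using a modified NCCLS broth microdilution MIC method. Mid-log bacteria were diluted in MHB to 0.5–1 × 10^6 CFU mL^–1 and mixed in equal volumes with peptides serially diluted in 0.2% BSA in 96-well plates. Physiological salt was added where specified, and the assay was done three independent times.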

LLRLRRRLL-NH2 [L2]
MBC [1]: 64 µM
MIC [1]: 32 µM
MBC [2]: 16 µM
MIC [2]: 8 µM
MBC [3]: 16 µM
MIC [3]: 8 µM
MBC [4]: 32 µM
MIC [4]: 16 µM
GM MBC [5]: 40.32 µM
GM, All [6]: 33.42 µM
TI, All [6]: 7.66
GM MIC [7]: 21.77 µM
TI, Gram-negative bacteria [7]: 11.76
GM MIC [8]: 52.50 µM
TI, Gram-positive bacteria [8]: 4.88
MBC [9]: 4 µM
MIC [9]: 2 µM
MBC [10]: 32 µM
MIC [10]: 16 µM
MBC [11]: 128 µM
MIC [11]: 64 µM
MIC [12]: > 64 µM
MIC [13]: > 64 µM
MIC [14]: >64 µM
MIC [15]: > 64 µM
MIC [16]: > 64 µM
MIC [17]: 8 µM
MBC [17]: 16 µM
MIC [18]: 16 µM
MBC [18]: 32 µM
MBC [19]: 128 µM
MIC [19]: 64 µM
MBC [20]: 128 µM
MIC [20]: 64 µM
GM MBC [21]: 70.66 µM
MIC, FeCl3 [22]: > 64 µM
MIC, NH4Cl [22]: > 64 µM
MIC, ZnCl2 [22]: > 64 µM
MIC, MgCl2 [22]: > 64 µM
MIC, CaCl2 [22]: > 64 µM
MIC, KCl [22]: > 64 µM
MIC, NaCl ([22]; 150 mM NaCl): > 64 µM
MIC, Control ([22]; no added salt, three independent assays): > 64 µM
MIC, FeCl3 [23]: 8 µM
MIC, NH4Cl [23]: 8 µM
MIC, ZnCl2 [23]: 8 µM
MIC, MgCl2 [23]: 16 µM
MIC, CaCl2 [23]: 32 µM
MIC, KCl [23]: 16 µM
MIC, NaCl [23]: 32 µM
MIC, Control [23]: 8 µM

RRLLLRLRL-NH2 [L8]
MBC [1]: 64 µM
MIC [1]: 32 µM
MBC [2]: 32 µM
MIC [2]: 16 µM
MBC [3]: 16 µM
MIC [3]: 8 µM
MBC [4]: 64 µM
MIC [4]: 32 µM
GM MBC [5]: 32.00 µM
GM, All [6]: 19.87 µM
TI, All [6]: 12.88
GM MIC [7]: 17.28 µM
TI, Gram-negative bacteria [7]: 14.81
GM MIC [8]: 23.78 µM
TI, Gram-positive bacteria [8]: 10.77
MBC [9]: 8 µM
MIC [9]: 4 µM
MBC [10]: 16 µM
MIC [10]: 8 µM
MBC [11]: 64 µM
MIC [11]: 32 µM
MBC [12]: 128 µM
MIC [12]: 64 µM
MIC [13]: > 64 µM
MBC [14]: 8 µM
MIC [14]: 4 µM
MBC [15]: 64 µM
MIC [15]: 32 µM
MBC [16]: 128 µM
MIC [16]: 64 µM
MIC [17]: 16 µM
MBC [17]: 32 µM
MIC [18]: 4 µM
MBC [18]: 8 µM
MBC [19]: 64 µM
MIC [19]: 32 µM
MBC [20]: 64 µM
MIC [20]: 32 µM
GM MBC [21]: 43.07 µM
MIC, FeCl3 [22]: 32 µM
MIC, NH4Cl [22]: 32 µM
MIC, ZnCl2 [22]: 32 µM
MIC, MgCl2 [22]: 64 µM
MIC, CaCl2 [22]: > 64 µM
MIC, KCl [22]: 64 µM
MIC, FeCl3 [23]: 16 µM
MIC, NH4Cl [23]: 8 µM
MIC, ZnCl2 [23]: 8 µM
MIC, MgCl2 [23]: 32 µM
MIC, CaCl2 [23]: > 64 µM
MIC, KCl [23]: 32 µM
MIC, NaCl [23]: 64 µM
MIC, Control [23]: 16 µM
